The conditions of data set [1]: amide bond, 24-membered ring, PyBOP/HOBt/DIPEA, 0.5 mM.
For data set [2], the system named is Clostridium difficile strains (21 clinical, 7 reference).
For data set [3], the system named is P. aeruginosa clinical strains and PAO1 (wild-type strain). Nature of the data set: Antibiotic sensitivity of P. aeruginosa clinical strains and PAO1 (MIC). The data set is classed as cell-based, Pseudomonas aeruginosa. The text has this:
In this regard, four clinical isolates of P. aeruginosa were obtained from the University of Nottingham.

Converted amounts (≈) assume the structure as drawn. Read-outs that look alike come from different tables or passages of the source. *1 amine or outer side, *2 acyl side, *3 side chain or, on linkers, in order; H or OH if unused. Where a SMILES comes first, the peptide text is derived from it. [ ]: non-standard residue; d: D form. dAla(ψthiazole) = C[C@@H](N[*:1])c1nc(C(=O)[*:2])cs1; Trp(4-Cl) = N[C@@H](Cc1c[nH]c2cccc(Cl)c12)C(=O)O; Dhb = C/C=C(\N)C(=O)O; Sar = CNCC(=O)O

Turning to `C/C=C1\NC(=O)[C@@H](C)NC(=O)CNC(=O)[C@H](Cc2c[nH]c3cccc(Br)c23)NC(=O)[C@H](Cc2c[nH]c3ccccc23)NC(=O)c2csc(n2)[C@@H](COC)NC(=O)CN(C)C1=O` [Cyclo[D-Ser(OMe)-Thz-Trp-Trp(4-Br)-Gly-D-Ala-Dhb-Sar]], the ring closure, yield after HPLC in data set [1] (from H-dSer(OMe)-Thz-Trp-Trp(4-Br)-Gly-dAla-Dhb-Sar-OH?) came to 19%.
In data set [2] (28 C. difficile strains), `C/C=C1\NC(=O)[C@@H](C)NC(=O)CNC(=O)[C@H](Cc2c[nH]c3cccc(Cl)c23)NC(=O)[C@H](Cc2c[nH]c3ccccc23)NC(=O)c2csc(n2)[C@@H](C)NC(=O)CN(C)C1=O` [Compound 9, Cyclo[D-Ala-Thz-Trp-Trp(4-Cl)-Gly-D-Ala-Dhb-Sar]] (cyclo([Dhb][Sar][dAla(ψthiazole)]W[Trp(4-Cl)]G[dA])) gave an MIC40 of 0.5 µg/mL (≈ 0.593 µM). The MIC50 – broadly, an inhibitory concentration at the 50% level, which refers to growth in some studies and to a panel of isolates in others – in data set [2] (28 C. difficile strains) came to 0.50 µg/mL (≈ 0.593 µM). Further, the MIC90 (as a rule, the lowest concentration that inhibits either 90% of growth or 90% of the strains tested, depending on the study) in data set [2] (28 C. difficile strains) is 0.50 µg/mL (≈ 0.593 µM). Besides, the minimum inhibitory concentration (MIC) – broadly, the smallest concentration in the dilution series that meets the test's criterion for growth inhibition – in data set [2] (C. difficile strain 630 (ribotype 012)) was 0.25 µg/mL (≈ 0.296 µM); in data set [2] (C. difficile strain ATCC 9689 (ribotype 001)), 0.5 µg/mL (≈ 0.593 µM); in data set [2] (C. difficile strain ATCC 13366) it was 1 µg/mL (≈ 1.19 µM); in data set [2] (C. difficile strain ATCC 43255) it was 0.25 µg/mL (≈ 0.296 µM); in data set [2] (C. difficile strain ATCC 700057 (ribotype 038)), 0.25 µg/mL (≈ 0.296 µM); in data set [2] (C. difficile strain ATCC BAA 1875 (ribotype 078)), 0.5 µg/mL (≈ 0.593 µM). The MIC in data set [2] (C. difficile strain BI1-FDX^R) worked out at 0.25 µg/mL (≈ 0.296 µM); in data set [2] (C. difficile strain Clin. 1), 0.5 µg/mL (≈ 0.593 µM); in data set [2] (C. difficile strain Clin. 2), 0.5 µg/mL (≈ 0.593 µM); in data set [2] (C. difficile strain Clin. 3), 0.25 µg/mL (≈ 0.296 µM); in data set [2] (C. difficile strain Clin. 5), 0.5 µg/mL (≈ 0.593 µM); in data set [2] (C. difficile strain Clin. 6) it was 0.5 µg/mL (≈ 0.593 µM). Further, the MIC in data set [2] (C. difficile strain Clin. 7), in data set [2] (C. difficile strain Clin. 8), in data set [2] (C. difficile strain Clin. 9), in data set [2] (C. difficile strain Clin. 10), in data set [2] (C. difficile strain Clin. 11) and in data set [2] (C. difficile strain Clin. 12) was 0.5 µg/mL (≈ 0.593 µM) each time. Moreover, the MIC in data set [2] (C. difficile strain Clin. 13) stood at 0.5 µg/mL (≈ 0.593 µM); in data set [2] (C. difficile strain Clin. 14), 0.5 µg/mL (≈ 0.593 µM); in data set [2] (C. difficile strain Clin. 15) it was 0.5 µg/mL (≈ 0.593 µM); in data set [2] (C. difficile strain Clin. 16), 0.25 µg/mL (≈ 0.296 µM); in data set [2] (C. difficile strain Clin. 18) it was 0.5 µg/mL (≈ 0.593 µM); in data set [2] (C. difficile strain Clin. 20), 0.5 µg/mL (≈ 0.593 µM). Further, the MIC in data set [2] (C. difficile strain Clin. 21), in data set [2] (C. difficile strain Clin. 22), in data set [2] (C. difficile strain Clin. 23) and in data set [2] (C. difficile strain Clin. 24) was 0.5 µg/mL (≈ 0.593 µM) in each case.
On to `C=C1NC(=O)[C@@H](C)NC(=O)CNC(=O)[C@H](Cc2c[nH]c3ccc(Cl)c(Cl)c23)NC(=O)[C@H](Cc2c[nH]c3ccccc23)NC(=O)c2csc(n2)[C@@H](C)NC(=O)CN(C)C1=O` [Cyclo[D-Ala-Thz-Trp-Trp(4,5-C1)-Gly-D-Ala-Dha-Sar]], for which the ring closure, yield after HPLC in data set [1] (from H-dAla-Thz-Trp-Trp(4,5-Cl)-Gly-dAla-Dha-Sar-OH?) was 2%.
Turning to `C[C@@H](O)[C@H]1C(=O)N2C(C(=O)O)=C(S[C@@H]3CN[C@H](C(=O)N(C)C)C3)[C@H](C)[C@H]12` [Meropenem], the MIC of antibiotic is more than 45 µM in data set [3] (strain PAO1); more than 45 µM in data set [3] (strain W4); 9 µM in data set [3] (strain W14); more than 45 µM in data set [3] (strain W23); 14 µM in data set [3] (strain W46).
As to `CC(C)=C1NC(=O)[C@@H](C)NC(=O)CNC(=O)[C@H](Cc2c[nH]c3cccc(Br)c23)NC(=O)[C@H](Cc2c[nH]c3ccccc23)NC(=O)c2csc(n2)[C@@H](C)NC(=O)CN(C)C1=O` [Cyclo[D-Ala-Thz-Trp-Trp(4-Br)-Gly-D-Ala-Dhv-Sar]], the ring closure, yield after HPLC in data set [1] (from H-dAla-Thz-Trp-Trp(4-Br)-Gly-dAla-Dhv-Sar-OH?) came to 42%.
As for Colistin, the MIC of antibiotic in data set [3] (strain PAO1) is 3 µM; in data set [3] (strain W4), 3 µM; in data set [3] (strain W14), more than 8 µM; in data set [3] (strain W23) it was 2 µM; in data set [3] (strain W46), 2 µM.
Turning to `C[C@H]1[C@H](NC(=O)/C(=N\OC(C)(C)C(=O)O)c2csc(N)n2)C(=O)N1S(=O)(=O)O` [Aztreonam], the MIC of antibiotic in data set [3] (strain PAO1) was less than 9 µM; in data set [3] (strain W4), 18 µM; in data set [3] (strain W14) it was more than 92 µM; in data set [3] (strain W23), less than 9 µM; in data set [3] (strain W46), less than 9 µM.
Consider `C=C1NC(=O)[C@@H](C)NC(=O)CNC(=O)[C@H](Cc2c[nH]c3cccc(OC)c23)NC(=O)[C@H](Cc2c[nH]c3ccccc23)NC(=O)c2csc(n2)[C@@H](C)NC(=O)CN(C)C1=O` [Cyclo[D-Ala-Thz-Trp-Trp(4-MeO)-Gly-D-Ala-Dha-Sar]], for which the ring closure, yield after HPLC in data set [1] (from H-dAla-Thz-Trp-Trp(4-MeO)-Gly-dAla-Dha-Sar-OH?) worked out at 11%.
`C=C1NC(=O)[C@@H](C)NC(=O)CNC(=O)[C@H](Cc2c[nH]c3cccc(Cl)c23)NC(=O)[C@H](Cc2c[nH]c3ccccc23)NC(=O)c2csc(n2)[C@@H](C)NC(=O)CN(C)C1=O` [Cyclo[D-Ala-Thz-Trp-Trp(4-C1)-Gly-D-Ala-Dha-Sar]] gave a ring closure, yield after HPLC in data set [1] (from H-dAla-Thz-Trp-Trp(4-Cl)-Gly-dAla-Dha-Sar-OH?) of 5%.
On to `C[C@H]1NC(=O)CNC(=O)[C@H](Cc2c[nH]c3cccc(Br)c23)NC(=O)[C@H](Cc2c[nH]c3ccccc23)NC(=O)c2csc(n2)[C@@H](C)NC(=O)CN(C)C(=O)/C(=C/c2ccccc2)NC1=O` [Cyclo[D-Ala-Thz-Trp-Trp(4-Br)-Gly-D-Ala-Dhp-Sar]], for which, in data set [1] (from H-dAla-Thz-Trp-Trp(4-Br)-Gly-dAla-Dhp-Sar-OH?), the ring closure, yield after HPLC came out at 35%.
As to `NCC[C@H](O)C(=O)N[C@@H]1C[C@H](N)[C@@H](O[C@H]2O[C@H](CN)[C@@H](O)[C@H](O)[C@H]2O)[C@H](O)[C@H]1O[C@H]1O[C@H](CO)[C@@H](O)[C@H](N)[C@H]1O` [Amikacin], the MIC of antibiotic was less than 14 µM in data set [3] (strain PAO1); 24 µM in data set [3] (strain W4); 41 µM in data set [3] (strain W14); less than 14 µM in data set [3] (strain W23); less than 14 µM in data set [3] (strain W46).
Turning to Gentamicin, the MIC of antibiotic in data set [3] (strain PAO1) is less than 4 µM; in data set [3] (strain W4), 8 µM; in data set [3] (strain W14), 8 µM; in data set [3] (strain W23), less than 4 µM; in data set [3] (strain W46), less than 4 µM.
In data set [1] (from H-dAla-Thz-Trp-Trp(4-Br)-Gly-dAla-Dhb-Sar-OH?), `C/C=C1\NC(=O)[C@@H](C)NC(=O)CNC(=O)[C@H](Cc2c[nH]c3cccc(Br)c23)NC(=O)[C@H](Cc2c[nH]c3ccccc23)NC(=O)c2csc(n2)[C@@H](C)NC(=O)CN(C)C1=O` [Cyclo[D-Ala-Thz-Trp-Trp(4-Br)-Gly-D-Ala-Dhb-Sar]] came in with a ring closure, yield after HPLC of 35%.
Turning to `C=C1NC(=O)[C@@H](C)NC(=O)CNC(=O)[C@H](Cc2c[nH]c3cccc(F)c23)NC(=O)[C@H](Cc2c[nH]c3ccccc23)NC(=O)c2csc(n2)[C@@H](C)NC(=O)CN(C)C1=O` [Cyclo[D-Ala-Thz-Trp-Trp(4-F)-Gly-D-Ala-Dha-Sar]], the ring closure, yield after HPLC in data set [1] (from H-dAla-Thz-Trp-Trp(4-F)-Gly-dAla-Dha-Sar-OH?) stood at 2%.
On to `C=C1NC(=O)[C@@H](C)NC(=O)CNC(=O)[C@H](Cc2c[nH]c3ccccc23)NC(=O)[C@H](Cc2c[nH]c3ccccc23)NC(=O)c2csc(n2)[C@@H](C)NC(=O)CN(C)C1=O` [Cyclo(D-Ala-D-Thiazole-L-Trp-L-Trp-Gly-D-Ala-Dha-Sar)], for which the ring closure, yield after HPLC in data set [1] (from H-dAla-Thz-Trp-Trp-Gly-dAla-Dha-Sar-OH?, DCM) stood at 7%.
In the case of `C/C=C1\NC(=O)[C@@H](C)NC(=O)CNC(=O)[C@H](Cc2c[nH]c3cccc(Cl)c23)NC(=O)[C@H](Cc2c[nH]c3ccccc23)NC(=O)c2csc(n2)[C@@H](C)NC(=O)CN(C)C1=O` [Cyclo[D-Ala-Thz-Trp-Trp(4-Cl)-Gly-D-Ala-Dhb-Sar]], the ring closure, yield after HPLC in data set [1] (from H-dAla-Thz-Trp-Trp(4-Cl)-Gly-dAla-Dhb-Sar-OH?) is 5%.
In data set [1] (from H-dAla-Thz-Trp-Trp(4-Br)-Gly-dAla-Dha-Sar-OH?), `C=C1NC(=O)[C@@H](C)NC(=O)CNC(=O)[C@H](Cc2c[nH]c3cccc(Br)c23)NC(=O)[C@H](Cc2c[nH]c3ccccc23)NC(=O)c2csc(n2)[C@@H](C)NC(=O)CN(C)C1=O` [Cyclo[D-Ala-Thz-Trp-Trp(4-Br)-Gly-D-Ala-Dha-Sar]] showed a ring closure, yield after HPLC of 7%.
The molecule `C=C1NC(=O)[C@@H](C)NC(=O)CNC(=O)[C@H](Cc2c[nH]c3cccc(C(F)(F)F)c23)NC(=O)[C@H](Cc2c[nH]c3ccccc23)NC(=O)c2csc(n2)[C@@H](C)NC(=O)CN(C)C1=O` [Cyclo[D-Ala-Thz-Trp-Trp(4-CF3)-Gly-D-Ala-Dha-Sar]] registered a ring closure, yield after HPLC in data set [1] (from H-dAla-Thz-Trp-Trp(4-CF3)-Gly-dAla-Dha-Sar-OH?) of 6%.
Consider `NC[C@H]1O[C@H](O[C@H]2[C@H](O)[C@@H](O[C@H]3O[C@H](CO)[C@@H](O)[C@H](N)[C@H]3O)[C@H](N)C[C@@H]2N)[C@H](N)C[C@@H]1O` [Tobramycin], for which the MIC of antibiotic in data set [3] (strain PAO1) was less than 4 µM; in data set [3] (strain W4), 9 µM; in data set [3] (strain W14), 25 µM; in data set [3] (strain W23) it was less than 4 µM; in data set [3] (strain W46), less than 4 µM.

These data come from US11192888B2, “Antibacterial compounds” (priority 2017, dated 2021).
